For one experiment, the system named is c-MYC gene expression. Kind of experiment: Expression level of Wnt/β-catenin target gene c-MYC by real-time PCR in HCT116 cells. Format: cell-based, human. The note with it: 10 and 3 μM, 24 hours. How it is done:
Effects of the compound of the present invention on Wnt/β-catenin signaling activity were studied using the real-time PCR method as well as using as an indicator changes in expression levels of target genes of the Wnt/β-catenin signaling pathway. To a RPMI 1640 medium (NACALAI TESQUE, INC.), 10% FBS (AusGeneX PTY LTD.) and 1% Penicillin/Streptomycin (NACALAI TESQUE, INC.) were added to prepare a cell culture medium (hereinafter referred to as medium 1). In a T75 flask, HCT116 cells (ATCC No. CCL-247) were added to the medium 1. The cells in the flask were cultured in the 5% CO2 incubator. The cultured HCT116 cells were diluted with the medium 1 so as to have a cell concentration of 1.1×10^5 cells/mL. Into the T75 flask, 13.5 mL of the diluted cells was seeded, followed by culturing overnight in the 5% CO2 incubator. […] Total RNA concentration was measured by a microspectrophotometer (Thermo Fisher Scientific Inc., Nano Drop ND-1000). […] The results were calculated as the expression ratio of the target gene to the endogenous control gene (β-Actin) by the comparative Ct method using a DMSO group as a reference.

Another experiment concerns AXIN2 protein expression. Kind of experiment: Expression level of Wnt/β-catenin target protein AXIN2 by western blotting in HCT116 cells. Format: cell-based. The note with it: Homo sapiens, 24 hours, read-out: Inhibition rate (%) AXIN2 protein. How it is done:
(§1) Expression levels of target proteins of the Wnt/β-catenin signaling pathway was analyzed by western blotting method, and effects of the compound of the present invention on Wnt/β-catenin signaling activity were studied by using a change of these levels as an indicator. HCT116 cells cultured in the same manner as in Test Example 2 were diluted with the medium 1 so as to have a cell concentration of 5×10^5 cells/mL, and 5 mL of the diluted cells were seeded into T25 flasks, followed by culturing overnight in the 5% CO2 incubator. Next day, solutions of the compound to be tested obtained by diluting 10 and 3 mM DMSO stock solutions of the compound to be tested 100-fold with the medium 1 were added to each flask so that the amount of the solution in the flask was one tenth of the amount of the final solution (final concentrations of the compound to be tested: 10 and 3 μM). […] Supernatant was recovered by centrifugal operation (15,000 rpm, 10 min.) and amounts of proteins were determined. […] Thereafter, using a CCD camera (GE Healthcare Co., ImageQuant LAS 500), the respective bands were detected by chemiluminescence. The detected bands were quantified by densitometry (GE Healthcare Co., ImageQuant TL v8.1.0.0). Inhibition rates were calculated from the intensities of the bands in the respective groups, with the luminescence of the band of the DMSO added group being 100%. […]
A general note: A western blot detects proteins with antibodies after separation by electrophoresis.

The subject of another experiment is c-MYC protein expression. Put plainly: Expression level of Wnt/β-catenin target protein c-MYC by western blotting in HCT116 cells. The note with it: Homo sapiens, 24 hours, read-out: Inhibition rate (%) c-MYC protein. The format is cell-based. How it is done: as §1

One may read the inhibition as how much of the control response was suppressed. With `O[C@H]1CC[C@@H](Oc2cccc3cnc(Nc4ccc5nc[nH]c5c4)nc23)CC1` [Example 1, cis-4-({2-[(1H-benzo[d]imidazol-6-yl)amino]quinazolyn-8-yl}oxy)cyclohexanol], in the experiment on c-MYC gene expression, the c-MYC gene expression entry is “inhibited the expression of AXIN2 and c-MYC”. For the same compound, the inhibition at 3 µM in the experiment with AXIN2 protein expression (HCT-116, 3 μM) was determined as 46.1%; in the experiment with c-MYC protein expression (HCT-116, 3 μM), 63.9%. Moreover, the inhibition at 10 µM is 66.9% in the experiment on AXIN2 protein expression (HCT-116, 10 μM) and 90.2% in the experiment with c-MYC protein expression (HCT-116, 10 μM).

For the origin of these results see US9682961B2, “Quinazoline derivative” (CARNA BIOSCIENCES, INC., priority 2013, dated 2017).
